Usually EC50 stands for the concentration at which the effect is half-maximal.

Series [1] concerns MDA-MB-231 tumor cells expressing PD-L1. Description: Rescue of mouse splenocyte proliferation inhibited by MDA-MB-231 tumor cells expressing PD-L1 (CFSE based assay). In kind it is cell-based. To be noted: for Fold induction: % splenocyte proliferation / % background proliferation, background 1.0, stimulated 3.7; for % Splenocyte proliferation: mouse splenocytes + anti-CD3/CD28 + MDA-MB-231 cells + compound, 72 hrs, background 20, stimulated 74. The source says: (§1) The effect of PD1 derived peptidomimetics on mouse splenocyte proliferation inhibited by recombinant PDL1 or tumor cells expressing PDL; analyzed by Fluorescence Activated Cell Shorting (FACS) method using CFSE (Carboxyfluorescein Diacetate Succinimidyl Ester) labeling.
Rescue of Mouse Splenocyte Proliferation in the Presence of Recombinant PD-L1/MDA MB-231 Cells Expressing PDL1: […]
(§2) Mouse splenocytes harvested from 6-8 weeks old C57 BL6 mice; RPMI 1640 (GIBCO, Cat #11875); DMEM with high glucose (GIBCO, Cat # D6429); Fetal Bovine Serum [Hyclone, Cat # SH30071.03]; Penicillin (10000 unit/ml)-Streptomycin (10,000 μg/ml) Liquid (GIBCO, Cat #15140-122); MEM Sodium Pyruvate solution 100 mM (100×), Liquid (GIBCO, Cat #11360); Nonessential amino acid (GIBCO, Cat #11140); L-Glutamine (GIBCO, Cat #25030); Anti-CD3 antibody (eBiosciences—16-0032); Anti-CD28 antibody (eBiosciences—16-0281); ACK lysis buffer (imp (GIBCO, Cat #-A10492); Histopaque (density-1.083 gm/ml) (SIGMA 10831); Trypan blue solution (SIGMA-T8154); 2 ml Norm Ject Luer Lock syringe—(Sigma 2014-12); 40 μm nylon cell strainer (BD FALCON 35230); Hemacytometer (Bright line-SIGMA Z359629); FACS Buffer (PBS/0.1% BSA): Phosphate Buffered Saline (PBS) pH 7.2 (HiMedia TS1006) with 0.1% Bovine Serum Albumin (BSA) (SIGMA A7050) and sodium azide (SIGMA 08591); 5 mM stock solution of CFSE: CFSE stock solution was prepared by diluting lyophilized CFSE with 180 μL of Di methyl Sulfoxide (DMSO C2H6SO, SIGMA-D-5879) and aliquoted in to tubes for further use. Working concentrations were titrated from 10 μM to 1 μM. (eBioscience—650850-85); 0.05% Trypsin and 0.02% EDTA (SIGMA 59417C); 96-well format ELISA plates (Corning CLS3390); BD FACS caliber (E6016); Recombinant Human B7-H1/PDL1 Fc Chimera (rh-PDL-1, cat no: 156-B7-100);
Splenocytes harvested in a 50 ml falcon tube by mashing mouse spleen in a 40 μm cell strainer were further treated with 1 ml ACK lysis buffer for 5 mins at room temperature. After washing with 9 ml of RPMI complete media, cells were re-suspended in 3 ml of 1×PBS in a 15 ml tube. 3 ml of Histopaque was added carefully to the bottom of the tube without disturbing overlaying splenocyte suspension. After centrifuging at 800×g for 20 mins at room temperature, the opaque layer of splenocytes was collected carefully without disturbing/mixing the layers. Splenocytes were washed twice with cold 1×PBS followed by total cell counting using Trypan Blue exclusion method and used further for cell based assays.
Splenocytes were cultured in RPMI complete media (RPMI+10% fetal bovine serum+1 mM sodium pyruvate+10,000 units/ml penicillin and 10,000 μg/ml streptomycin) and maintained in a CO2 incubator with 5% CO2 at 37° C.
CFSE is a dye that passively diffuses into cells and binds to intracellular proteins. 1×10^6 cells/ml of harvested splenocytes were treated with 5 μM of CFSE in pre-warmed 1×PBS/0.1% BSA solution for 10 mins at 37° C. Excess CFSE was quenched using 5 volumes of ice-cold culture media to the cells and incubated on ice for 5 mins. CFSE labelled splenocytes were further given three washes with ice cold complete RPMI media. CFSE labelled 1×10^5 splenocytes added to wells containing either MDA-MB231 cells (1×10^5 cells cultured in high glucose DMEM medium) or recombinant human PDL-1 (100 ng/ml) and test compounds. Splenocytes were stimulated with anti-mouse CD3 and anti-mouse CD28 antibody (1 μg/ml each), and the culture was further incubated for 72 hrs at 37° C. with 5% CO2. Cells were harvested and washed thrice with ice cold FACS buffer and % proliferation was analyzed by flow cytometry with 488 nm excitation and 521 nm emission filters.
(§3) Percent splenocyte proliferation was analyzed using cell quest FACS program and fold induction was calculated by normalizing individual values to % background proliferation. […]

The next series concerns the target T1, recombinant mouse PDL-2 (Mus musculus, UniProt Q9WUL5).
T1 construct: purchased R&D Systems 1022-PL-100
Nature of the series: Rescue of splenocyte effector function, IFN-γ release by ELISA, recombinant mouse PDL-2. Format: cell-based. The following applies: mouse splenocytes, anti-CD3/CD28, PDL-2 100 ng/ml, 72 hrs, read-out: EC50 (nM), IFN-γ release, in presence of recombinant mouse PDL-2. How it is done:
(§4) 1×10^5 splenocytes (isolated as described earlier) were added to wells containing recombinant mouse PDL-1 (cat no: 1019-B7-100, R&D Systems) or PDL-2 (Cat no: 1022-PL-100, R&D Systems) (both at 100 ng/ml) and test peptidomimetics. Splenocytes were stimulated with anti-mouse CD3 (eBiosciences—16-0032) and anti-mouse CD28 antibody (eBiosciences—16-0281) (1 μg/ml each) and the culture was further incubated for 72 hrs at 37° C. with 5% CO2. After 72 hours of incubation the cell culture supernatants were collected after brief centrifugation of culture plates (200 g×5 mins at 4° C.) and processed for mouse IFN-γ measurement by ELISA following manufacturer's protocol (e Biosciences; 88-7314). In brief, 96 well ELISA plates were coated with 100 μl/well of capture antibody in coating buffer and incubated overnight at 4° C. Plates were washed five times with wash buffer and further blocked with 200 μl of 1× assay diluents for 1 hr at RT. Following wash step, 100 μl of cell culture supernatants were added to wells and further incubated for 2 hrs at RT. Appropriate standards were also included. After wash step, plate was incubated for one hour with 100 μl/well of detection antibody. The wash step was repeated and the plate was incubated for 30 minutes with 100 μl/well of Avidin-HRP. The plate was washed 7 times with wash buffer and incubated for 15 minutes with 100 μl/well of substrate solution. 50 μl of stop solution was added to each well and the plate was read at 450 nm. The absorbance values were then plotted against the standards and the concentration of IFN-γ was determined using GraphPad Prism software. Each experimental condition was carried out in triplicates. Percent IFN-γ release for each test compound concentration was calculated by normalising individual test compound IFN-γ values to anti-CD3+anti-CD28 stimulated IFN-γ value. The percent IFN-γ release by test compounds were calculated using following formula: % IFN-γ release=[(Test compound IFN-γ−PDL background control)/(anti-CD3+anti-CD28 positive control−PDL background control)]*100. […]

Another series concerns the target T2, recombinant mouse PDL-1 (Mus musculus, UniProt Q9EP73).
T2 construct: purchased R&D Systems 1019-B7-100
Description: Rescue of splenocyte effector function, IFN-γ release by ELISA, recombinant mouse PDL-1. In kind it is cell-based. The following applies: mouse splenocytes, anti-CD3/CD28, PDL-1 100 ng/ml, 72 hrs, read-out: EC50 (nM), IFN-γ release, in presence of recombinant mouse PDL-1. How it is done:
as §4
(ELISA stands for enzyme-linked immunosorbent assay.)

Another series has as its target T3, recombinant human PDL-1 (Homo sapiens, UniProt Q9NZQ7).
T3 construct: Fc (Fc chimera); purchased R&D Systems 156-B7-100
Nature of the series: Rescue of mouse splenocyte proliferation inhibited by recombinant human PDL-1 (CFSE, FACS). Format: cell-based. To be noted: mouse splenocytes, anti-CD3/CD28 stimulated, rh-PDL-1 100 ng/ml, 72 hrs.
Text: as §1
Rescue of Mouse Splenocyte Proliferation in the Presence of Recombinant PD-L1/MDA MB-231 Cells Expressing PDL1:
Alternatively, recombinant human PD-L1 (rh-PDL-1, cat no: 156-B7-100, R&D Systems) was also used as the source of PD-Ll.
as §2, with “Working concentrations were titrated from 10 μM to 1 μM. (eBioscience—650850-85); 0.05% Trypsin and 0.02% EDTA (SIGMA 59417C); 96-well format ELISA plates (Corning CLS3390); BD FACS caliber (E6016); Recombinant Human B7-H1/PDL1 Fc Chimera (rh-PDL-1, cat no: 156-B7-100);” left out
CFSE is a dye that passively diffuses into cells and binds to intracellular proteins. […] Cells were harvested and washed thrice with ice cold FACS buffer and % proliferation was analyzed by flow cytometry with 488 nm excitation and 521 nm emission filters.
as §3

In series [2] the test system is CT26 (murine colon carcinoma) cells. Nature of the series: In vivo efficacy on primary tumour growth in CT-26 colon cancer model. More on the design: species or system mouse. To be noted: male Balb/c mice, 3 mg/kg. The procedure:
Two million CT26 (murine colon carcinoma) cells injected to male Balb/c mice (s.c) on day 1 and dosing started on Day 5. Each group consisted of ten animals. Tumor volumes were measured 3 times a week, body weight and clinical signs monitored daily. Compound #2 dosed at 3 mg/kg, inhibited the tumour growth to the extent of 46 percent (p<0. p<0.01, 2-way ANOVA) (FIG. 2).

T2 sequence (Q9EP73 with tags, fused parts or gaps limits assumed): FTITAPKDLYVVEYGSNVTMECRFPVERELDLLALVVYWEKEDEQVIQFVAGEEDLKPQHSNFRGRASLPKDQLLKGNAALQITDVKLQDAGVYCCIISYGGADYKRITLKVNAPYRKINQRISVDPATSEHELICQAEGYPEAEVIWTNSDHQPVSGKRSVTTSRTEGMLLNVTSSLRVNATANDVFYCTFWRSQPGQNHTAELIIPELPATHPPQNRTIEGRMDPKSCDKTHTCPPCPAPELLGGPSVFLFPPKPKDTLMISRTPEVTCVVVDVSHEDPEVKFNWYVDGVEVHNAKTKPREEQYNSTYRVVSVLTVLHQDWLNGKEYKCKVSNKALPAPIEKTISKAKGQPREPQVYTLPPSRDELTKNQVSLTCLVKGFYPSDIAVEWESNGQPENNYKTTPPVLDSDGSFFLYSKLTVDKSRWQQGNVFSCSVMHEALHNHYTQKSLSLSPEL
T1 sequence (Q9WUL5 with tags, fused parts or gaps limits assumed): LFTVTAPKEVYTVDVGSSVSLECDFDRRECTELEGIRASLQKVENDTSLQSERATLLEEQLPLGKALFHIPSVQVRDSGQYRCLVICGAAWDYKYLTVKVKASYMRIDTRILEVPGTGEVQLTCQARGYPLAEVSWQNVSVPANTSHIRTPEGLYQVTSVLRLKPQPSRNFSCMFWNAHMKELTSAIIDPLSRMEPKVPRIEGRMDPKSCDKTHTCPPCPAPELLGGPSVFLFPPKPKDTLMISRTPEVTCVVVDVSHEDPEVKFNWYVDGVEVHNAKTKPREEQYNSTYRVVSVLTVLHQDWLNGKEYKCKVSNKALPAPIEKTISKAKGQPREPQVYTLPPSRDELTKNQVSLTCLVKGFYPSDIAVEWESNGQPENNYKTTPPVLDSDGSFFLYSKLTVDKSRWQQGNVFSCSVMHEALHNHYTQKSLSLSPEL
T3 sequence (Q9NZQ7 with tags, fused parts or gaps limits assumed): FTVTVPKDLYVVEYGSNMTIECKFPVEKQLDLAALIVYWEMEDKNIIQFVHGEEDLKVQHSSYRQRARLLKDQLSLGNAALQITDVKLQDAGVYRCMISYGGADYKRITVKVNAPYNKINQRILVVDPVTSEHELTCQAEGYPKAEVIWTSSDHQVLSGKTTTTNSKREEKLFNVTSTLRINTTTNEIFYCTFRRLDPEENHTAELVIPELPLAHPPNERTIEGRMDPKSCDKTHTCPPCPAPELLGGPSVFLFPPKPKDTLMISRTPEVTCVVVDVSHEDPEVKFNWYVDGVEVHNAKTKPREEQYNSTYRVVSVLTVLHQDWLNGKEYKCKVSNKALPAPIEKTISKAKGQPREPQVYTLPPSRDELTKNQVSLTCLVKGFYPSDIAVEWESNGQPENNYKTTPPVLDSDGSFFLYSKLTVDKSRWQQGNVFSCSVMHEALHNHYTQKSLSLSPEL

Take `CC(O)[C@H](N)C(=O)N[C@@H](CC(N)=O)C(=O)NNC(=O)[C@@H](N)CO` (some centres unmarked) [Compound 5]: in series [1], the Fold induction is listed as 3 and the “% Splenocyte proliferation” value was determined as 60%.

In the case of `CN[C@@H](CO)C(=O)NNC(=O)[C@H](CC(N)=O)NC(=O)N[C@H](C(=O)O)C(C)O` (some centres unmarked) [Compound 4], in series [1], the Fold induction was 2.8 and the “% Splenocyte proliferation” value was determined as 56%.

As for `COC(=O)[C@@H](NC(=O)N[C@@H](CC(N)=O)C(=O)NNC(=O)[C@@H](N)CO)C(C)O` (some centres unmarked) [Compound 10], in series [1], the Fold induction is reported as 3.4 and the “% Splenocyte proliferation” value came to 67%.

With `CNC(=O)N[C@H](C(=O)N[C@@H](CC(N)=O)C(=O)NNC(=O)[C@@H](N)CO)C(C)O` (some centres unmarked) [Compound 18], in series [1], the Fold induction was 3 and the “% Splenocyte proliferation” value is listed as 59%.

In turn, `CC(O)[C@@H](N)C(=O)NNC(=O)[C@@H](CC(N)=O)NC(=O)N[C@H](CO)C(=O)O` (some centres unmarked) [Compound 13] gave a Fold induction in series [1] of 3.4. For the same compound, in series [1], the “% Splenocyte proliferation” value turned out to be 67%. The EC50 came to 30 nM on recombinant mouse PDL-2, 40 nM on recombinant mouse PDL-1 and 35 nM at recombinant human PDL-1.

For the compound `CC(O)[C@H](NC(=O)N[C@@H](CC(N)=O)C(=O)NNC(=O)[C@@H](N)CO)C(N)=O` (some centres unmarked) [Compound 6], in series [1], the Fold induction was determined as 2.3 and the “% Splenocyte proliferation” value is on record as 46%.

For `NC(=O)C[C@H](NC(=O)N[C@@H](CC(=O)O)C(=O)O)C(=O)NNC(=O)[C@@H](N)CO` [Compound 7], in series [1], the Fold induction is reported as 2.9 and the “% Splenocyte proliferation” value was determined as 57%.

`C[C@H](NC(=O)N[C@@H](CC(N)=O)C(=O)NNC(=O)[C@@H](N)CO)C(=O)O` [Compound 17]: in series [1], the Fold induction amounted to 3 and the “% Splenocyte proliferation” value is 59%.

For the compound `COC[C@H](N)C(=O)NNC(=O)[C@H](CC(N)=O)NC(=O)N[C@H](C(=O)O)C(C)O` (some centres unmarked) [Compound 11], in series [1], the Fold induction is 2.2 and the “% Splenocyte proliferation” value worked out at 44%.

With `CCC(C)[C@H](NC(=O)N[C@@H](CC(N)=O)C(=O)NNC(=O)[C@@H](N)CO)C(=O)O` (some centres unmarked) [Compound 8], in series [1], the Fold induction is 3 and the “% Splenocyte proliferation” value came to 60%.

In the case of `CC(O)[C@H](NC(=O)N[C@@H](CC(N)=O)C(=O)NNC(=O)[C@@H](N)CO)C(=O)O` (some centres unmarked) [Compound 2], in series [1], the Fold induction is 3.4 and the “% Splenocyte proliferation” value is reported as 68%. On recombinant mouse PDL-2, the EC50 worked out at 40 nM. The EC50 at recombinant mouse PDL-1 worked out at 30 nM. For the same compound, in series [2] (CT26 model), the “body weight reduction during the period of dosing” value is recorded as “no body weight reduction” and the “clinical signs during the period of dosing” value is “no clinical signs”. Moreover, the “inhibition of tumour growth” value in series [2] (CT26 s.c., dosing from Day 5) is recorded as 46%. Moreover, on recombinant human PDL-1, the EC50 worked out at 23 nM.

In the case of `CC(O)[C@H](N)C(=O)NNC(=O)[C@H](CC(N)=O)NC(=O)N[C@@H](CO)C(=O)O` (some centres unmarked) [Compound 12], the EC50 at recombinant mouse PDL-2 worked out at 62 nM; on recombinant mouse PDL-1, 27 nM; on recombinant human PDL-1, 22 nM.

In the case of `CC(O)[C@H](NC(=O)N[C@H](CC(N)=O)C(=O)NNC(=O)[C@H](N)CO)C(=O)O` (some centres unmarked) [Compound 15], in series [1], the Fold induction is reported as 2.9 and the “% Splenocyte proliferation” value was 58%.

With `NC(=O)C[C@H](N)C(=O)NNC(=O)[C@@H](N)CO` [Compound 1], in series [1], the Fold induction was 2.8 and the “% Splenocyte proliferation” value turned out to be 56%.
